Measurements as given in PubChem BioAssay AID248 (DTP/NCI, 2004).
“And” between values parts separate entries of the source, which are not always exact repeats. Equal entries are not always repeated. Toxic doses and inconclusive results are not listed. No stated cut-off is given here; in the data, active means T/C of 150% or more; inactive means T/C below 125%.

System: L1210 leukemia ip in BDF1 mice, survival T/C
Assay: NCI In Vivo Anticancer Drug Screen. Data for tumor model L1210 Leukemia (intraperitoneal) in B6D2F1 (BDF1) mice
Details: endpoint: mean survival time, higher = longer survival
Procedure, shortened: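 In this screen, tumor-bearing mice given compound are compared to those given vehicle, and their survival values are reported as a treated-to-control quotient.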

[1] = dose: 100.0 mg/kg/injection, schedule: Q01DX009 (ip), vehicle: Klucel (hydroxypropylcellulose) (HPC)
[2] = dose: 100.0 mg/kg/injection, schedule: Q04DX002 (ip), vehicle: Klucel (hydroxypropylcellulose) (HPC)
[3] = dose: 100.0 mg/kg/injection, schedule: Q04DX003 (ip), vehicle: Klucel (hydroxypropylcellulose) (HPC)
[4] = dose: 200.0 mg/kg/injection, schedule: Q01DX009 (ip), vehicle: Klucel (hydroxypropylcellulose) (HPC)
[5] = dose: 200.0 mg/kg/injection, schedule: Q04DX002 (ip), vehicle: Klucel (hydroxypropylcellulose) (HPC)
[6] = dose: 200.0 mg/kg/injection, schedule: Q04DX003 (ip), vehicle: Klucel (hydroxypropylcellulose) (HPC)
[7] = dose: 400.0 mg/kg/injection, schedule: Q01DX009 (ip), vehicle: Klucel (hydroxypropylcellulose) (HPC)
[8] = dose: 400.0 mg/kg/injection, schedule: Q04DX002 (ip), vehicle: Klucel (hydroxypropylcellulose) (HPC)
[9] = dose: 400.0 mg/kg/injection, schedule: Q04DX003 (ip), vehicle: Klucel (hydroxypropylcellulose) (HPC)
[10] = dose: 50.0 mg/kg/injection, schedule: Q04DX003 (ip), vehicle: saline
[11] = dose: 100.0 mg/kg/injection, schedule: Q04DX003 (ip), vehicle: saline
[12] = dose: 200.0 mg/kg/injection, schedule: Q04DX003 (ip), vehicle: saline

Measured: T/C

COc1ccc(C(O)c2cnc(C)n2Cc2ccccc2)cc1 (configuration not stated)
inactive: dose: 100.0 mg/kg/injection, schedule: Q01DX001 (ip), vehicle: Klucel (hydroxypropylcellulose) (HPC) 93 % of control | [1] 101 % of control and 105 % of control | [2] 94 % of control and 98 % of control and 106 % of control | [3] 93 % of control | dose: 200.0 mg/kg/injection, schedule: Q01DX001 (ip), vehicle: Klucel (hydroxypropylcellulose) (HPC) 102 % of control | [4] 100 % of control and 101 % of control | [5] 92 % of control and 95 % of control and 88 % of control | [6] 93 % of control | dose: 400.0 mg/kg/injection, schedule: Q01DX001 (ip), vehicle: Klucel (hydroxypropylcellulose) (HPC) 97 % of control | [7] 96 % of control and 90 % of control | [8] 95 % of control and 98 % of control and 91 % of control | [9] 95 % of control

O=C1CCC2(CCCc3c2ccc2ccccc32)O1 (configuration not stated)
inactive: [10] 97 % of control | [11] 97 % of control | [12] 90 % of control

CC(=O)Oc1c2ccccc2cc2c1ccc1ccccc12
inactive: [2] 119 % of control | [5] 100 % of control | [8] 106 % of control

OCCN1CCN(CC/C=C2/c3ccccc3Sc3ccc(C(F)(F)F)cc32)CC1
inactive: dose: 0.78 mg/kg/injection, schedule: Q03HX024 (ip), vehicle: saline 94 % of control | dose: 1.56 mg/kg/injection, schedule: Q03HX024 (ip), vehicle: saline 103 % of control | dose: 2.0 mg/kg/injection, schedule: Q01DX009 (ip), vehicle: saline 89 % of control | dose: 2.5 mg/kg/injection, schedule: Q01DX009 (ip), vehicle: saline 114 % of control | dose: 3.12 mg/kg/injection, schedule: Q03HX024 (ip), vehicle: saline 105 % of control | dose: 4.0 mg/kg/injection, schedule: Q01DX009 (ip), vehicle: saline 98 % of control | dose: 5.0 mg/kg/injection, schedule: Q01DX009 (ip), vehicle: saline 103 % of control | dose: 6.25 mg/kg/injection, schedule: Q04DX003 (ip), vehicle: saline 101 % of control | dose: 8.0 mg/kg/injection, schedule: Q01DX009 (ip), vehicle: saline 93 % of control | dose: 10.0 mg/kg/injection, schedule: Q01DX009 (ip), vehicle: saline 116 % of control | dose: 10.0 mg/kg/injection, schedule: Q04DX003 (ip), vehicle: saline 115 % of control | dose: 12.5 mg/kg/injection, schedule: Q04DX003 (ip), vehicle: saline 110 % of control | dose: 18.75 mg/kg/injection, schedule: Q01DX001 (ip), vehicle: saline 107 % of control | dose: 20.0 mg/kg/injection, schedule: Q01DX009 (ip), vehicle: saline 95 % of control | dose: 37.5 mg/kg/injection, schedule: Q01DX001 (ip), vehicle: saline 117 % of control | [10] 121 % of control

C[C@]12C=CC(=O)C=C1CC[C@@H]1[C@@H]2CC[C@]2(C)OC(=O)CC[C@@H]12
inactive: dose: 125.0 mg/kg/injection, schedule: Q01DX Z (sc), vehicle: steriod suspending solution 103 % of control | dose: 250.0 mg/kg/injection, schedule: Q01DX Z (sc), vehicle: steriod suspending solution 102 % of control | dose: 500.0 mg/kg/injection, schedule: Q01DX Z (sc), vehicle: steriod suspending solution 101 % of control | dose: 1000.0 mg/kg/injection, schedule: Q01DX Z (sc), vehicle: steriod suspending solution 101 % of control

C[C@H]1C[C@H]2[C@@H]3CC[C@](O)(C(=O)CO)[C@@]3(C)C[C@H](O)[C@]2(F)[C@@]2(C)C=CC(=O)C=C12
inactive: dose: 25.0 mg/kg/injection, schedule: Q01DX001 (sc), vehicle: steriod suspending solution 103 % of control | dose: 50.0 mg/kg/injection, schedule: Q01DX001 (sc), vehicle: steriod suspending solution 100 % of control | dose: 50.0 mg/kg/injection, schedule: Q04DX003 (sc), vehicle: Klucel (hydroxypropylcellulose) (HPC) 88 % of control | dose: 100.0 mg/kg/injection, schedule: Q01DX001 (sc), vehicle: steriod suspending solution 94 % of control | dose: 100.0 mg/kg/injection, schedule: Q04DX003 (sc), vehicle: Klucel (hydroxypropylcellulose) (HPC) 98 % of control | dose: 200.0 mg/kg/injection, schedule: Q01DX001 (sc), vehicle: steriod suspending solution 98 % of control | dose: 200.0 mg/kg/injection, schedule: Q04DX003 (sc), vehicle: Klucel (hydroxypropylcellulose) (HPC) 90 % of control

O=C1c2c(c(-c3ccccc3)c3ccccc3c2-c2ccccc2)C(=O)C2C(c3ccccc3)c3ccccc3C(c3ccccc3)C12 (configuration not stated)
inactive: [2] 113 % of control | [5] 106 % of control | [8] 98 % of control

OC(c1ccccc1)(c1ccccc1)C(F)(Cl)Cl
inactive: [11] 101 % of control | [12] 94 % of control | dose: 400.0 mg/kg/injection, schedule: Q04DX003 (ip), vehicle: saline 90 % of control

Nc1ncccc1O
inactive: dose: 10.0 mg/kg/injection, schedule: Q01DX001 (ip), vehicle: saline 105 % of control | dose: 20.0 mg/kg/injection, schedule: Q01DX001 (ip), vehicle: saline 95 % of control | dose: 40.0 mg/kg/injection, schedule: Q01DX001 (ip), vehicle: saline 94 % of control

O=C(O)C(O)(C1CCCCC1)C1CCC2CCC3CCCC1C32 (configuration not stated)
inactive: dose: 100.0 mg/kg/injection, schedule: Q01DX009 (ip), vehicle: saline with Tween-80 87 % of control

O=C(Nc1ccccc1)N1CCC2N(C(=O)Nc3ccccc3)CCC3N(C(=O)Nc4ccccc4)CCC1N23 (configuration not stated)
inactive: [3] 94 % of control | [6] 96 % of control | [9] 100 % of control

CC1=C(O)C(=O)C(C2=C(O)C(=O)C(C)=C(O)C2=O)=C(O)C1=O
inactive: dose: 0.1 mg/kg/injection, schedule: Q01DX Z (ip), vehicle: carboxymethylcellulose (CMC) 111 % of control | dose: 0.2 mg/kg/injection, schedule: Q01DX Z (ip), vehicle: carboxymethylcellulose (CMC) 105 % of control | dose: 0.5 mg/kg/injection, schedule: Q01DX Z (ip), vehicle: carboxymethylcellulose (CMC) 94 % of control | dose: 1.0 mg/kg/injection, schedule: Q01DX Z (ip), vehicle: carboxymethylcellulose (CMC) 94 % of control | dose: 5.0 mg/kg/injection, schedule: Q01DX001 (ip), vehicle: carboxymethylcellulose (CMC) 103 % of control | dose: 10.0 mg/kg/injection, schedule: Q01DX001 (ip), vehicle: carboxymethylcellulose (CMC) 102 % of control | dose: 12.0 micrograms/kg/injection, schedule: Q01DX Z (ip), vehicle: carboxymethylcellulose (CMC) 101 % of control | dose: 25.0 micrograms/kg/injection, schedule: Q01DX Z (ip), vehicle: carboxymethylcellulose (CMC) 101 % of control | dose: 50.0 micrograms/kg/injection, schedule: Q01DX Z (ip), vehicle: carboxymethylcellulose (CMC) 101 % of control

S=c1sc2ccccc2n1CN1CCCCC1
inactive: [1] 95 % of control | [3] 92 % of control | [4] 103 % of control | [6] 97 % of control | [7] 105 % of control | [9] 96 % of control

Cc1ccc(CN=C=S)cc1
inactive: dose: 6.25 mg/kg/injection, schedule: Q01DX009 (ip), vehicle: saline with Tween-80 103 % of control | dose: 12.5 mg/kg/injection, schedule: Q01DX009 (ip), vehicle: saline with Tween-80 98 % of control | dose: 25.0 mg/kg/injection, schedule: Q01DX009 (ip), vehicle: saline with Tween-80 97 % of control

COc1nc(SC)nc2[nH]ccc12
inactive: dose: 75.0 mg/kg/injection, schedule: Q01DX001 (ip), vehicle: other 103 % of control | dose: 150.0 mg/kg/injection, schedule: Q01DX001 (ip), vehicle: other 100 % of control | dose: 300.0 mg/kg/injection, schedule: Q01DX001 (ip), vehicle: other 97 % of control

NNc1ccc(S(=O)(=O)C(F)F)cc1
inactive: dose: 100.0 mg/kg/injection, schedule: Q01DX001 (ip), vehicle: saline 95 % of control | dose: 200.0 mg/kg/injection, schedule: Q01DX001 (ip), vehicle: saline 92 % of control | dose: 400.0 mg/kg/injection, schedule: Q01DX001 (ip), vehicle: saline 93 % of control
